The numbers were not newly measured in patent US8853454B2, “Quaternary ammonium salts as microbe inhibitors” (Mionix Corporation, priority 2006, dated 2014), which cites them from elsewhere.

The conditions of this data set: in vivo.

Turning to `OCCCl` [2-chloroethanol], the oral lethal dose was 50 to 500 mg/kg.
